Like-named read-outs stand apart in the source and are kept apart here. Non-standard residues stand in square brackets, D forms with d. No end group written: not given here. *: point of attachment. TAMRA = tetramethyl-6-carboxy-rhodamine, CN(C)c1ccc2c(-c3cc(C(=O)*)ccc3C(=O)[O-])c3ccc(N(C)C)cc3[o+]c2c1; pT = C[C@@H](OP(=O)(O)O)[C@H](N)C(=O)O
T1: PLK2-PBD(356-681), Polo-box domain of human Polo-like kinase 2 (human, UniProt Q9NYY3 356-681)
T1 construct: Polo-like kinase 2 (PLK2), human, Polo-box domain, residues 356-681; also called PLK2 PBD (aa356-681); PLK2 PDB; source: E. coli C41, purified (GST-Sepharose column, cleaved on column with PreScission protease, gel chromatography)
T1 sequence (looked up): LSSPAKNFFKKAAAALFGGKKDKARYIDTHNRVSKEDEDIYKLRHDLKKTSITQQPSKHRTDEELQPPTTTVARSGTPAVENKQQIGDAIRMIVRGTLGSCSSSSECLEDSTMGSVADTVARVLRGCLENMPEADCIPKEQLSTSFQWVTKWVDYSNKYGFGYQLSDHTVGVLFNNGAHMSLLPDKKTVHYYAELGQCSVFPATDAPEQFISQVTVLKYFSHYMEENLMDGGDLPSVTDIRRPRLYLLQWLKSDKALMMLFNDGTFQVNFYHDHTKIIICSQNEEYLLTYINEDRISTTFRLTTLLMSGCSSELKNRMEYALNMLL

B1: TAMRA-MAGPMQTS(pThreonine)PKNGAKK, consensus binding phosphopeptide used with the PLK2 PBD (peptide)
peptide: {TAMRA}-MAGPMQTS[pT]PKNGAKK
notes: the second T of 'TST' is phosphothreonine; also called phosphopeptide substrate; source: bought: Designer Bioscience

Experiments:
[1] = tested on: SW48 parental (KRAS WT) cells; assay: Cell viability (SRB), SW48 parental; format: cell-based; details: Homo sapiens; SW48 KRAS WT, Crizotinib with DMSO, SRB 72 hr; read-out: GI50
Method: (§1) SW48 Parental, SW48 G12D, Panc-1, HPAF-II, Panc 02.03 and Panc 05.04 cell lines were seeded overnight at 5000 cells per well in a 96 well plate in recommended media (ATCC). Compounds were added the following day and viability was measured at 72h using the sulforhodamine B (SRB) colorimetric assay as follows. Cells were fixed by replacing media with 1% v/v Trichloroacetic Acid (TCA) (Sigma-Aldrich) at 4°C and incubated for 1h also at 4°C. Wells were washed thoroughly with copious amounts of deionised water before staining with Sulforhodamine B (SRB) (Sigma-Aldrich) solution (0.057% w/v in 1% v/v Acetic Acid (VWR)) for 30 min. Stain was aspirated and wells washed with several changes of 1% v/v Acetic Acid until unbound stain was removed, before air-drying. Bound stain was solubilized with 100μl / well 10mM Tris (pH 8.0) (Trizma Base (121.1) Sigma-Aldrich) with agitation for 10 min. Fluorescence intensity was recorded at Ex540nm / Em590nm using a BMG Pherastar Plus plate reader ([Vichai and Kirtikara, 2006]).

SW48 KRAS G12D cells = assay: Cell viability (SRB), SW48 KRAS G12D; format: cell-based; details: Homo sapiens; SW48 KRAS G12D, Crizotinib with DMSO, SRB 72 hr; read-out: GI50
Method: as §1

[2] = tested on: murine pancreatic organoids KRAS WT p53 MUT; assay: Viability of pancreatic organoids (CellTitre Glo 3D), KRAS WT; format: cell-based; details: Mus musculus; organoids KRAS WT p53 MUT, Crizotinib plus DMSO, n=2; read-out: Mean GI50
Method: (§2) Organoid cultures were prepared from the pancreas of LSL-Trp53^R172H/+, Pdx-1-Cre (for Kras WT organoids) or LSL-Trp53^R172H/+, LSL-Kras^G12D/+, Pdx-1-Cre (for Kras^G12D organoids KPC3760 and KPC26684) strains ([Hingorani et al., 2005]). Pancreatic ducts were manually picked after tissue mincing and overnight enzymatic digestion with 0.012% (w/v) collagenase XI (Sigma) and 0.012% (w/v) dispase (GIBCO) in DMEM media containing 1% FBS (GIBCO), before seeding in growth-factor-reduced (GFR) Matrigel (BD) ([Boj et al., 2015]).
(§3) Pancreatic organoids were extracted and cultured as detailed above ([Boj et al., 2015]). In brief, pancreatic organoids were seeded at 600 cells per well in a 96 well plate and allowed to grow for 7 days with media replenishment on the 3rd day. Full-grown organoids were then treated with compounds for 72h and viability determined using CellTitre Glo 3D assay (Promega). For viability assays with c-MET siRNA, cells were reverse transfected in a 6 cm dish using Dharmafect 1 (GE Dharmacon) per manufacturer’s instructions. On the following day, cells were trypsinised and plated onto 96 well plates or 6 well plates. The 96 well plates were treated with a dose range of compounds or DMSO, and viability was determined via SRB colorimetric assay. Cells in the 6 well plates were collected at the end of experiment to corroborate knockdown of c-MET by Western blotting.

[3] = tested on: murine pancreatic organoids KRAS MUT p53 MUT; assay: Viability of pancreatic organoids (CellTitre Glo 3D), KRAS G12D; format: cell-based; details: Mus musculus; organoids KRAS MUT p53 MUT #2, Crizotinib plus DMSO, n=2; read-out: Mean GI50
Method: as §2, §3

Panc-1 = assay: Cell viability (SRB), Panc-1; format: cell-based, human; details: Homo sapiens
Method: as §1, §3
Cells were reverse-transfected with 50nM (SW48 parental, SW48 KRAS G12D and Panc-1) or 25nM (HeLa Flp-In T-REx parental cells) siRNA using Dharmafect (GE Dharmacon) as manufacturer’s recommendations. Where transfected cells were subsequently treated with compounds, the cells were allowed to settle overnight and then treated with compound at the indicated concentration the following day. Viability was assessed after 72 hrs, with the SRB colorimetric assay. Knockdown efficiencies were determined by Western blot or RT-qPCR. Oligos against the following target sequences were used. c-MET (Qiagen): […], […], […]. PLK1 (Qiagen): […]. PLK2 (SMARTpool; Dharmacon): ACACAGAAGGAGAACGAUA, CAUCAAUGAGGAUAGGAUA, CUGCCUAGUGUUACUGAUA, ACAAAGUCUACGCCGCAAA. PLK3 (SMARTpool; Dharmacon): GCGAGAAGAUCCUAAAUGA, GCAAGUGGGUUGACUACUC, GCACAUCCGUUGGCCAUCA, GACCUCAAGUUGGGAAAUU. PLK4 (Qiagen): […].

Panc 02.03 = assay: Cell viability (SRB), Panc 02.03; format: cell-based; details: Homo sapiens, Panc 02.03; read-out: Crizotinib GI50
Method: as §1
as §3, with “Cells in the 6 well plates were collected at the end of experiment to corroborate knockdown of c-MET by Western blotting.” left out
(§4) Cells were reverse-transfected with 50nM (SW48 parental, SW48 KRAS G12D and Panc-1) or 25nM (HeLa Flp-In T-REx parental cells) siRNA using Dharmafect (GE Dharmacon) as manufacturer’s recommendations. […] Viability was assessed after 72 hrs, with the SRB colorimetric assay. Knockdown efficiencies were determined by Western blot or RT-qPCR. […]

Panc 05.04 = assay: Cell viability (SRB), Panc 05.04; format: cell-based; details: Homo sapiens, Panc 05.04; Panc 04.05; read-out: Crizotinib GI50
Method: as §1
as §3, with “Cells in the 6 well plates were collected at the end of experiment to corroborate knockdown of c-MET by Western blotting.” left out
as §4

DLD-1 = assay: Cell viability, DLD-1; format: cell-based; details: Homo sapiens, read-out: Crizotinib GI50
SW116 = assay: Cell viability, SW1116; format: cell-based; details: Homo sapiens, read-out: Crizotinib GI50
HT29 = assay: Cell viability, HT29; format: cell-based; details: Homo sapiens, HT-29, read-out: Crizotinib GI50
[4] = biological target: T1, PLK2-PBD(356-681), Polo-box domain of …; assay: fluorescence polarisation; competition format: TAMRA-labelled phosphopeptide 10 nM, PBD 84 nM (2.5 ng/ul), PBS pH 7.4 plus 0.03% tween; compound and PBD incubated together at 22 C for 1 hour before the peptide was added; same procedure for PLK2 PBD with its own peptide; details: both partners purified

Row | Molecule | GI50 [1] [nM] | GI50 (SW48 KRAS G12D cells) [nM] | GI50 [2] [nM] | GI50 [3] [nM] | GI50 (Panc-1; PANC-1, 72 h, Panc-1, individual compound, 72 hr, Figure 7F/7G, read-out: Abs GI50) [nM] | GI50 (Panc-1; PANC-1, Panc-1, read-out: Crizotinib GI50) [nM] | EC50 (Panc-1; Panc-1, c-MET inhibitor alone, SRB 72 h, Figure S5C, read-out: EC50, % survival) [nM] | GI50 (Panc 02.03) [nM] | GI50 (Panc 05.04) [nM] | GI50 (DLD-1) [nM] | GI50 (SW116) [nM] | GI50 (HT29) [nM] | binding result [4]
1 | C[C@@H](Oc1cc(-c2cnn(C3CCNCC3)c2)cnc1N)c1c(Cl)ccc(F)c1Cl [Crizotinib, reference compound] | 560 ± 20 | 630 ± 10 | 17600 | 6800 | 2500 | 7240 | 3500 ± 1040 | 960 | 91 | 1620 | 4730 | 3850 | –
2 | B1 | – | – | – | – | – | – | – | – | – | – | – | – | binds
